Bounds are passed on as bounds.

From patent US11021481B2, “Substituted isoindolin-1-ones and 2,3-dihydro-1h-pyrrolo[3,4-c]pyridin-1-ones as HPK1 antagonists” (Nimbus Saturn, Inc., priority 2019, dated 2021) come the findings set out here.

Sequence of HPK1 (Q92918 whole entry): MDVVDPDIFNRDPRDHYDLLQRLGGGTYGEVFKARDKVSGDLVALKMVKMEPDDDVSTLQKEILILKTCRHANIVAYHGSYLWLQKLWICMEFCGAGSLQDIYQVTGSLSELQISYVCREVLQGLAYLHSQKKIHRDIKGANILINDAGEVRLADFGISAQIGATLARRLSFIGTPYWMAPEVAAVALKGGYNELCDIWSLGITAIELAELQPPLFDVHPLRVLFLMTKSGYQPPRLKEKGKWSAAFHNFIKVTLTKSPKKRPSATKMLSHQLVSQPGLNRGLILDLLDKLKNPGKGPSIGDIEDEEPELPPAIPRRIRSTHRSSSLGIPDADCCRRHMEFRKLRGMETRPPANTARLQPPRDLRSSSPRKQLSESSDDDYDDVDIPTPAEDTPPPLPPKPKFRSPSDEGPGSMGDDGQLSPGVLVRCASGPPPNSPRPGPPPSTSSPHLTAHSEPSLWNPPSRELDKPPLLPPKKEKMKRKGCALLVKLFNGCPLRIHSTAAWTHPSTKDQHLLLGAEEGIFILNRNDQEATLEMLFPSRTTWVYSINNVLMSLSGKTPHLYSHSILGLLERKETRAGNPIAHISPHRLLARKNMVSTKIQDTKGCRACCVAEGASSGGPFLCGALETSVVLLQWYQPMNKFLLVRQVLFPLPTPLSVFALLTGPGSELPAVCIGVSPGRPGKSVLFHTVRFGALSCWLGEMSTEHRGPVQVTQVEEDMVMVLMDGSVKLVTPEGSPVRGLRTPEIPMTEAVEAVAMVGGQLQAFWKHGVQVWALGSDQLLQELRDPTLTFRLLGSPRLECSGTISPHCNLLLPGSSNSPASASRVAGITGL

The test has as its target HPK1 (Homo sapiens (Human), UniProt Q92918). Nature of the test: HPK1 biochemical enzyme assay (microfluidic mobility shift assay). The conditions noted are these: 1.5 nM HPK1, ATP 1 mM final, 30 min preincubation, 60 min at RT, Caliper EZ Reader; read-out: HPK1 1000UMATP caliper IC50. In outline:
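Ten-point compound titrations (top 3 μM final) preincubated 30 min with HPK1 and substrate, then reaction started with 1 mM ATP and 1 μM substrate, 5 mM MgCl2. After 60 min at RT, reaction terminated and product measured by microfluidic mobility shift.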
A word on the IC50: it is the concentration that gives 50% inhibition. `Cc1ccn2c(-c3ccc(Nc4ccc(N5CCO[C@@H](CO)C5)cn4)c4c3CNC4=O)cnc2c1F` [I-460, 4-(8-fluoro-7-methyl-imidazo[1,2-a]pyridin-3-yl)-7-[[5-[(2R)-2-(hydroxymeth-yl)morpholin-4-yl]-2-pyridyl]amino] isoindolin-1-one]: the IC50 is below 100 nM.
Take `CN1CC(O)(C2CCCN(c3ccc(Nc4ccc(-c5cnc6cc(F)ccn56)c5c4C(=O)NC5)nc3)C2)C1` (stereo in doubt) [I-678, (R)-4-(7-fluoroimidazo [1,2-a]pyridin-3-yl)-7-((5-(3-(3-hydroxy-1-methylazetidin-3-yl)piperidin-1-yl)pyridin-2-yl)amino)isoin-dolin-1-one]: the IC50 is below 100 nM.
Consider `CN(C)Cc1nc(Nc2ccc(-c3cnc4cnccn34)c3c2C(=O)NC3)ccc1[C@H]1CCOC1` [I-713, (R)-7-((6-((dimethylamino)-methyl)-5-(tetrahydrofuran-3-yl)pyridin-2-yl)amino)-4-(imidazo[1,2-a]pyrazin-3-yl)isoindolin-1-one], for which the IC50 is below 100 nM.
`Cn1ccc2c(-c3ncc(Nc4cccc(N5C[C@@H](CN6CCC6)CCC5=O)n4)c4c3CNC4=O)ccnc21` [I-688, (R)-7-((6-(5-(azetidin-1-ylmethyl)-2-oxopiperidin-1-yl)pyridin-2-yl)amino)-4-(1-methyl-1H-pyrrolo[2,3-b]pyridin-4-yl)-2,3-dihydro-1H-pyrrolo[3,4-c]pyridin-1-one]: the IC50 was above 1000 nM.
To `CN1CCC(c2ccc(Nc3ccc(-c4ccnc5c4ccn5C)c4c3C(=O)NC4)nc2)CC1=O` (stereo not shown) [I-271, 4-(1-methyl-1H-pyrrolo[2,3-b]pyridin-4-yl)-7-((5-(1-methyl-2-oxopiperidin-4-yl)pyridin-2-yl)amino)isoin-dolin-1-one] belongs below 100 nM; to `O=C1NCc2c(-c3cnn4c3CCCC4)ccc(Nc3ccc(N4CCC[C@]5(CCNC5=O)C4)cn3)c21` [I-446, (S)-7-(6-((3-oxo-7-(4,5,6,7-tetrahydropyra-zolo[1,5-a]pyridin-3-yl)isoindolin-4-yl)amino)pyri-din-3-yl)-2,7-diazaspiro[4.5] decan-1-one], below 100 nM.
As for `Cc1[nH]c2ncccc2c1-c1ccc(Nc2ccc(N3CCN(C)CC3)cn2)c2c1CNC2=O` [I-27, 7-[[5-(4-methylpiperazin-1-yl)-2-pyridyl]amino]-4-(2-methyl-1H-pyrrolo[2,3-b]pyridin-3-yl)-isoindolin-1-one], the figure is 100 to 1000 nM; as for `CN1CCC(O)(c2cccc(Nc3cnc(-c4ccnc5c4ccn5C)c4c3C(=O)NC4)n2)CC1` [I-407, 7-((6-(4-hydroxy-1-methylpiperidin-4-yl)pyridin-2-yl)amino)-4-(1-methyl-1H-pyrrolo[2,3-b]pyridin-4-yl)-2,3-dihydro-1H-pyrrolo[3,4-c]pyridin-1-one], below 100 nM; as for `CN(C)[C@H]1CCCc2ccc(Nc3ccc(-c4cnc5cc(F)ccn45)c4c3C(=O)NC4)nc21` [I-841, (S)-7-((8-(dimethylam-ino)-5,6.7,8-tetrahydroquin-olin-2-yl)amino)-4-(7-fluoroimidazo [1,2-a]pyridin-3-yl)isoindolin-1-one], 100 to 1000 nM.
Consider `COC[C@@H]1CN(c2ccc(Nc3cnc(-c4ccnc5c4ccn5C)c4c3C(=O)NC4)nc2CN(C)C)CCO1` [I-797, (S)-7-((6-((dimethylamino)-methyl)-5-(2-(methoxymeth-yl)morpholino)-pyridin-2-yl)amino)-4-(1-methyl-1H-pyrrolo[2,3-b]pyridin-4-yl)-2,3-dihydro-1H-pyrrolo[3,4-c)pyridin-1-one], for which the concentration for half-maximal inhibition (IC50) was below 100 nM.
As to `C[C@@H](c1nc(Nc2ccc(-c3cnc4cc(F)ccn34)c3c2C(=O)NC3)ccc1[C@H]1CCOC1)N(C)C` (single isomer, unassigned) [I-822], the IC50 was below 100 nM.
With `O=C1NCc2c(-c3cnc4cc(F)ccn34)ccc(Nc3ccc(N4CCC[C@H](O)C4)cn3)c21` [I-175, 4-(7-fluoroimidazo [1,2-a]pyridin-3-yl)-7-[[5-[(3S)-3-hydroxy-1-piperidyl]-2-pyridyl]amino] isoindolin-1-one], the IC50 was below 100 nM.
To `O=C1NCc2c(-c3cnc4cc(C(F)(F)F)ccn34)ccc(Nc3ccc(N4CCC(O)CC4)cn3)c21` [I-140] belongs below 100 nM; to `CNC1(C)CCN(c2ccc(Nc3cnc(-c4ccnc5c4ccn5C)c4c3C(=O)NC4)nc2)CC1` [I-244, 7-[[5-[4-methyl-4-(methylamino)-1-piperidyl]-2-pyridyl]-amino]-4-(1-methylpyrrolo [2,3-b]pyridin-4-yl)-2,3-dihydropyrrolo [3,4-c]pyridin-1-one], below 100 nM.
For the molecule `CN(C)[C@@H]1CCCc2ccc(Nc3ccc(-c4cnc5cc(F)ccn45)c4c3C(=O)NC4)nc21` [I-842, (R)-7-((8-(dimethylam-ino)-5,6,7,8-tetrahydroquin-olin-2-yl)amino)-4-(7-fluoroimidazo [1,2-a]pyridin-3-yl)isoindo1in-1-one], the IC50 is below 100 nM.
As for `CC(C)(O)[C@H]1CCCN(c2ccc(Nc3ccc(-c4cnc5cc(F)ccn45)c4c3C(=O)NC4)nc2)C1` [I-213, 4-(7-fluoroimidazo [1,2-a]pyridin-3-yl)-7-[[5-[(3S)-3-(1-hydroxy-1-methyl-ethyl)-1-piperidyl]-2-pyridyl]amino] isoindolin-1-one], the figure is below 100 nM; as for `CN1CCc2cc(Nc3ccc(-c4ccnc5c4ccn5C)c4c3C(=O)NC4)nn2CC1=O` [I-294, 6-methyl-2-((7-(1-methyl-1H-pyrrolo[2,3-b]pyridin-4-yl)-3-oxoisoindolin-4-yl)amino)-5.6-dihydro-4H-pyrazolo[1,5-d][l,4]diaze-pin-7(8H)-one], below 100 nM.
To `Cc1ccn2c(-c3ncc(Nc4ccc(N5CCO[C@@H](C(C)(C)O)C5)cn4)c4c3CNC4=O)cnc2c1F` [I-467, 4-(8-fluoro-7-methyl-imidazo[1,2-a]pyridin-3-yl)-7-[[5-[(2R)-2-(1-hydroxy-1-methyl-ethyl)morpholin-4-yl]-2-pyridyl]amino]-2,3-dihydropyrrolo [3,4-c]pyridin-l-one] belongs below 100 nM.
With `CN(C)CCN1CCC(c2ccc(Nc3cnc(-c4ccnc5c4ccn5C)c4c3C(=O)NC4)nc2)CC1=O` (stereo not shown) [I-386, 7-((5-(1-(2-(dimethylami-no)ethyl)-2-oxopiperidin-4-yl)pyridin-2-yl)amino)-4-(1-methyl-1H-pyrrolo[2,3-b]pyridin-4-yl)-2,3-dihydro-1H-pyrrolo[3,4-c]pyridin-1-one], the IC50 was below 100 nM.
Turning to `O=C1NCc2c(-c3ccc4cnccn34)ccc(Nc3ccc(N4CCC(O)CC4)cn3)c21` [I-369, 7-((5-(4-hydroxypiper-idin-1-yl)pyridin-2-yl)amino)-4-(pyrrolo[1,2-a]pyrazin-6-yl)isoindolin-1-one], the IC50 was below 100 nM.
Take `O=C1NCc2c(-c3cnc4cnccn34)ccc(Nc3ccc(N4CCCC(O)CC4)cn3)c21` (stereo not shown) [I-301, 7-((5-(4-hydroxyaze-pan-1-yl)pyridin-2-yl)amino)-4-(imidazo[1,2-a]pyrazin-3-yl)isoindolin-1-one]: the IC50 was below 100 nM.
To `CN(C)Cc1nc(Nc2ccc(-c3cnc4cc(F)ccn34)c3c2C(=O)NC3)ccc1N1CCOC[C@@H](O)C1` (single isomer, unassigned) [I-820] belongs below 100 nM; to `O=C1NCc2c(-c3cnc4cc(F)ccn34)ccc(Nc3ccc([C@H]4CCOC4)c(CN4CCCC4)n3)c21` [I-515, (R)-4-(7-fluoroimidazo [1,2-a]pyridin-3-yl)-7-((6-(pyrrolidin-1-ylmethyl)-5-(tetrahydrofuran-3-yl)pyridin-2-yl)amino)isoin-dolin-1-one], below 100 nM.
Take `CN1CCN(c2ccc(Nc3ccc(-c4ccnc5c4ccn5C)c4c3C(=O)NC4)nc2)CC1` [I-33, 7-[[5-(4-methylpiperazin-1-yl)-2-pyridyl]amino]-4-(1-methylpyrrolo [2,3-b]pyridin-4-yl)isoindolin-1-one]: the IC50 is below 100 nM.
On to `Cc1[nH]c2ncccc2c1-c1ncc(Nc2ccc(N3CCN(C)CC3)cn2)c2c1CNC2=O` [I-15], for which the IC50 was 100 to 1000 nM.
As for `O=C1NCc2c(-c3cnc4cc(F)ccn34)ccc(Nc3ccc(C4CCOC4)c(CN4CCCC4)n3)c21` (stereo not shown) [I-505, 4-(7-fluoroimidazo [1,2-a]pyridin-3-yl)-7-[[6-(pyrrolidin-1-ylmethyl)-5-tetrahydrofuran-3-yl-2-pyridyl]amino]isoindolin-1-one], the figure is below 100 nM; as for `Cc1cccc2c(-c3ncc(Nc4ccc(N5CCN(C)CC5)cn4)c4c3CNC4=O)c[nH]c12` [I-5, 4-(7-methyl-1H-indol-3-yl)-7-[[5-(4-methylpiperazin-1-yl)-2-pyridyl]amino]-2,3-dihydropyrrolo [3,4-c]pyridin-1-one], 100 to 1000 nM.
On to `Cc1cc(Nc2ccc(N3CCC(O)CC3)cn2)c2c(c1-c1cnc3cc(F)ccn13)CNC2=O` [I-389, 4-(7-fluoroimidazo [1,2-a]pyridin-3-yl)-7-((5-(4-hydroxypiperidin-1-yl)pyridin-2-yl)amino)-5-methylisoindol in-1-one], for which the IC50 is below 100 nM.
For `CN1CCN(c2ccc(Nc3cnc(-c4c[nH]c5ccccc45)c4c3C(=O)NC4)nc2)CC1` [I-2, 4-(1H-indol-3-yl)-7-[[5-(4-methylpiperazin-1-yl)-2-pyridyl]amino]-2,3-dihydropyrrolo [3,4-c]pyridin-1-one], the IC50 lay in the range of 100 to 1000 nM.
`Cn1ccc2c(-c3ncc(Nc4ccc(N5CCC[C@@H](O)C5)cn4)c4c3CNC4=O)ccnc21` [I-178, 7-[[5-[(3R)-3-hydroxy-1-piperidyl]-2-pyridyl]amino]-4-(1-methylpyrrolo [2,3-b]pyridin-4-yl)-2,3-dihydropyrrolo [3,4-c]pyridin-1-one]: the IC50 is below 100 nM.
As for `CN1CCN(c2ccc(Nc3ccc(-c4ccnc5c4ccn5C4CC4)c4c3C(=O)NC4)nc2)CC1` [I-265, 4-(1-cyclopropyl-1H-pyrrolo[2,3-b]pyridin-4-yl)-7-((5-(4-methylpiperazin-1-yl)pyridin-2-yl)amino)isoin-dolin-1-one], the IC50 was below 100 nM.
